PubChem BioAssay AID330 (DTP/NCI, 2004)
“And” between values parts separate entries of the source, which are not always exact repeats. Equal values may be shown once. Toxic doses and inconclusive results are not listed. The calls were made as follows: active = survival T/C of 150% or more; inactive = T/C below 125% in these data.

Tested on: P388 leukemia ip, CD2F1 mice, survival T/C
Assay: NCI In Vivo Anticancer Drug Screen. Data for tumor model P388 Leukemia (intraperitoneal) in CD2F1 (CDF1) mice
Conditions: endpoint: median survival time, higher = longer survival
Method in brief: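 Mice carrying the transplanted tumor received test compound or vehicle. Survival was recorded in each group, and the value is the treated-group measurement divided by that of the vehicle-treated control group.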

[1] = dose: 50.0 mg/kg/injection, schedule: Q01DX005 (ip), vehicle: Klucel (hydroxypropylcellulose) (HPC)
[2] = dose: 100.0 mg/kg/injection, schedule: Q01DX005 (ip), vehicle: Klucel (hydroxypropylcellulose) (HPC)
[3] = dose: 200.0 mg/kg/injection, schedule: Q01DX005 (ip), vehicle: Klucel (hydroxypropylcellulose) (HPC)
[4] = dose: 12.5 mg/kg/injection, schedule: Q01DX009 (ip), vehicle: saline
[5] = dose: 25.0 mg/kg/injection, schedule: Q01DX009 (ip), vehicle: saline
[6] = dose: 50.0 mg/kg/injection, schedule: Q01DX009 (ip), vehicle: saline
[7] = dose: 50.0 mg/kg/injection, schedule: Q01DX005 (ip), vehicle: saline with Tween-80
[8] = dose: 100.0 mg/kg/injection, schedule: Q01DX005 (ip), vehicle: saline with Tween-80
[9] = dose: 50.0 mg/kg/injection, schedule: Q01DX009 (ip), vehicle: Klucel (hydroxypropylcellulose) (HPC)
[10] = dose: 100.0 mg/kg/injection, schedule: Q01DX009 (ip), vehicle: Klucel (hydroxypropylcellulose) (HPC)
[11] = dose: 200.0 mg/kg/injection, schedule: Q01DX009 (ip), vehicle: Klucel (hydroxypropylcellulose) (HPC)
[12] = dose: 25.0 mg/kg/injection, schedule: Q01DX009 (ip), vehicle: saline with Tween-80
[13] = dose: 50.0 mg/kg/injection, schedule: Q01DX009 (ip), vehicle: saline with Tween-80
[14] = dose: 100.0 mg/kg/injection, schedule: Q01DX009 (ip), vehicle: saline with Tween-80
[15] = dose: 100.0 mg/kg/injection, schedule: Q01DX009 (ip), vehicle: saline
[16] = dose: 200.0 mg/kg/injection, schedule: Q01DX009 (ip), vehicle: saline
[17] = dose: 200.0 mg/kg/injection, schedule: Q01DX009 (ip), vehicle: saline with Tween-80
[18] = dose: 25.0 mg/kg/injection, schedule: Q04DX003 (ip), vehicle: saline

Measured: T/C

CCOc1ccc(N=Nc2c(C)nn(C(N)=S)c2OCC)cc1
inactive: dose: 15.0 mg/kg/injection, schedule: Q01DX005 (ip), vehicle: Klucel (hydroxypropylcellulose) (HPC) 100 % of control | dose: 30.0 mg/kg/injection, schedule: Q01DX005 (ip), vehicle: Klucel (hydroxypropylcellulose) (HPC) 97 % of control

COc1ccc(C2CCCC(CCc3ccc(O)cc3)O2)cc1 (stereo not given)
inactive: [1] 100 % of control | [2] 103 % of control | [3] 100 % of control

O=c1c2ccccc2nc(-c2ccccc2Cl)n1/N=C/c1cccc([N+](=O)[O-])c1
inactive: dose: 0.78 mg/kg/injection, schedule: Q01DX009 (ip), vehicle: saline with Tween-80 99 % of control | dose: 1.56 mg/kg/injection, schedule: Q01DX009 (ip), vehicle: saline with Tween-80 92 % of control | dose: 3.12 mg/kg/injection, schedule: Q01DX009 (ip), vehicle: saline with Tween-80 91 % of control

CN(CC[n+]1cccc(C(N)=O)c1)N=O
inactive: dose: 100.0 mg/kg/injection, schedule: Q01DX001 (ip), vehicle: saline 108 % of control | dose: 200.0 mg/kg/injection, schedule: Q01DX001 (ip), vehicle: saline 100 % of control | dose: 400.0 mg/kg/injection, schedule: Q01DX001 (ip), vehicle: saline 107 % of control

O=S1(=O)OC2(c3ccccc31)c1cc(Br)c(O)c(O)c1Oc1c2cc(Br)c(O)c1O
inactive: [4] 105 % of control | [5] 103 % of control | [6] 88 % of control

N#CCc1ccccc1Br
inactive: [7] 93 % of control | [8] 101 % of control

C(=C(Sc1ccccc1)Sc1ccccc1)C(Sc1ccccc1)c1ccccc1 (stereo not given)
inactive: [9] 93 % of control | [10] 96 % of control | [11] 90 % of control

CCCCOC1=NC2C(=O)NCC2CO1 (stereo not given)
inactive: [7] 97 % of control | [8] 94 % of control | dose: 200.0 mg/kg/injection, schedule: Q01DX005 (ip), vehicle: saline with Tween-80 97 % of control

Cc1ccc([N+](=O)[O-])cc1NC(=O)Oc1ccccc1
inactive: dose: 100.0 mg/kg/injection, schedule: Q01DX009 (ip), vehicle: other 90 % of control | dose: 200.0 mg/kg/injection, schedule: Q01DX009 (ip), vehicle: other 110 % of control | dose: 400.0 mg/kg/injection, schedule: Q01DX009 (ip), vehicle: other 100 % of control

CCCOc1cc2c(cc1C(C)c1ccc(OCC)c(C)c1)OCO2 (stereo not given)
inactive: dose: 30.0 mg/kg/injection, schedule: Q01DX005 (ip), vehicle: saline with Tween-80 100 % of control | dose: 60.0 mg/kg/injection, schedule: Q01DX005 (ip), vehicle: saline with Tween-80 103 % of control | dose: 120.0 mg/kg/injection, schedule: Q01DX005 (ip), vehicle: saline with Tween-80 106 % of control | dose: 240.0 mg/kg/injection, schedule: Q01DX005 (ip), vehicle: saline with Tween-80 116 % of control

CB1NN=C(C)c2sccc21
inactive: [12] 102 % of control | [13] 103 % of control | [14] 86 % of control

Nc1ccc(C2NC(=O)Cc3ccccc32)cc1 (stereo not given)
inactive: [6] 92 % of control | [15] 90 % of control | [16] 86 % of control

O=C1NCCCN1C(=O)Nc1ccc(Cl)c(Cl)c1
inactive: [9] 101 % of control | [10] 91 % of control | [11] 95 % of control

CC(C)C(C)CS(=O)(=O)OCCCCOS(=O)(=O)CC(C)C(C)C (stereo not given)
inactive: dose: 50.0 mg/kg/injection, schedule: Q01DX005 (ip), vehicle: suspension in saline 103 % of control | dose: 100.0 mg/kg/injection, schedule: Q01DX005 (ip), vehicle: suspension in saline 105 % of control | dose: 200.0 mg/kg/injection, schedule: Q01DX005 (ip), vehicle: suspension in saline 112 % of control

COC(=O)C(CNc1ccc(S(N)(=O)=O)cc1)=[N+]=[N-]
inactive: dose: 6.25 mg/kg/injection, schedule: Q01DX009 (ip), vehicle: saline 98 % of control | [4] 97 % of control | [5] 91 % of control | [15] 100 % of control | [16] 99 % of control

Nc1nc2nc(CBr)c(CBr)nc2c(=O)[nH]1
inactive: [12] 115 % of control | [13] 118 % of control | [14] 122 % of control | [17] 100 % of control

CC12OC1C(=O)C=CC2=O (stereo not given)
inactive: dose: 5.0 mg/kg/injection, schedule: Q04DX002 (ip), vehicle: saline with Tween-80 111 % of control

COC(C#N)c1ccccc1 (stereo not given)
inactive: dose: 6.25 mg/kg/injection, schedule: Q04DX003 (ip), vehicle: saline with Tween-80 100 % of control | dose: 12.5 mg/kg/injection, schedule: Q04DX003 (ip), vehicle: saline with Tween-80 100 % of control | dose: 25.0 mg/kg/injection, schedule: Q04DX003 (ip), vehicle: saline with Tween-80 108 % of control and 115 % of control and 91 % of control | [18] 98 % of control

CCC(=O)c1ccc(OC(C)=O)cc1
inactive: dose: 50.0 mg/kg/injection, schedule: Q04DX003 (ip), vehicle: saline with Tween-80 103 % of control | dose: 100.0 mg/kg/injection, schedule: Q04DX003 (ip), vehicle: saline with Tween-80 103 % of control | dose: 200.0 mg/kg/injection, schedule: Q04DX003 (ip), vehicle: saline with Tween-80 96 % of control

CCCCC(CC1CCCCC1)C(=O)O (stereo not given)
inactive: dose: 50.0 mg/kg/injection, schedule: Q01DX001 (ip), vehicle: saline with Tween-80 113 % of control | dose: 100.0 mg/kg/injection, schedule: Q01DX001 (ip), vehicle: saline with Tween-80 109 % of control | dose: 200.0 mg/kg/injection, schedule: Q01DX001 (ip), vehicle: saline with Tween-80 109 % of control

C1CCNCC1.O=C([CH-]C(=O)C(F)(F)F)c1cccs1.O=C([CH-]C(=O)C(F)(F)F)c1cccs1.O=C([CH-]C(=O)C(F)(F)F)c1cccs1.O=C([CH-]C(=O)C(F)(F)F)c1cccs1.[Eu+3]
inactive: dose: 12.5 mg/kg/injection, schedule: Q01DX009 (ip), vehicle: saline with Tween-80 95 % of control | dose: 25.0 mg/kg/injection, schedule: Q01DX009 (ip), vehicle: Klucel (hydroxypropylcellulose) (HPC) 105 % of control | [12] 95 % of control | [9] 109 % of control | [13] 99 % of control | [10] 109 % of control | [14] 89 % of control

C(=N/OC(c1ccccc1)(c1ccccc1)c1ccccc1)/c1ccccc1
inactive: [18] 104 % of control | dose: 75.0 mg/kg/injection, schedule: Q04DX003 (ip), vehicle: saline 100 % of control | dose: 150.0 mg/kg/injection, schedule: Q04DX003 (ip), vehicle: saline 95 % of control

O=[N+]([O-])c1ccc(/C=N/NC(=S)NC23CC4CC(CC(C4)C2)C3)o1
inactive: [1] 92 % of control | [2] 103 % of control | [3] 94 % of control

CCC(C)C(NC(=O)C(C)Oc1cc(Cl)c(Cl)cc1Cl)C(=O)O (stereo not given)
inactive: [7] 92 % of control | [8] 101 % of control

CCOC(=O)N1C=CC2(C=C1)CCCCC2
inactive: dose: 25.0 mg/kg/injection, schedule: Q04DX003 (ip), vehicle: Klucel (hydroxypropylcellulose) (HPC) 101 % of control | dose: 50.0 mg/kg/injection, schedule: Q04DX003 (ip), vehicle: Klucel (hydroxypropylcellulose) (HPC) 106 % of control

Cc1[nH]nc2c(Cc3ccco3)n[nH]c(=O)c12
inactive: [9] 101 % of control | [10] 100 % of control | [11] 100 % of control

Cc1cc(OC2OC(CO)C(OC3OC(CO)C(O)C(O)C3O)C(O)C2O)c2c(c1)C(=O)c1cccc(O)c1C2=O (stereo not given)
inactive: [13] 104 % of control | [14] 104 % of control | [17] 105 % of control

COc1ccc(N=Nc2c(C)nn(C(=O)c3ccncc3)c2C)cc1
inactive: [9] 108 % of control | [10] 99 % of control | [11] 101 % of control

NC1=C(O)C(=O)C(c2ccc3c(c2)OCO3)O1 (stereo not given)
inactive: dose: 60.0 mg/kg/injection, schedule: Q01DX005 (ip), vehicle: Klucel (hydroxypropylcellulose) (HPC) 92 % of control | dose: 120.0 mg/kg/injection, schedule: Q01DX005 (ip), vehicle: Klucel (hydroxypropylcellulose) (HPC) 95 % of control | dose: 240.0 mg/kg/injection, schedule: Q01DX005 (ip), vehicle: Klucel (hydroxypropylcellulose) (HPC) 91 % of control
